In ChEMBL document CHEMBL1201862, “PubChem BioAssay data set” (2004):
The source made the active and inactive calls.

Columns and labels:
Protein skinhead-1 = molecular target: T1, Protein skinhead-1 (Caenorhabditis elegans, UniProt P34707); assay type: functional
T1 sequence (P34707 whole entry): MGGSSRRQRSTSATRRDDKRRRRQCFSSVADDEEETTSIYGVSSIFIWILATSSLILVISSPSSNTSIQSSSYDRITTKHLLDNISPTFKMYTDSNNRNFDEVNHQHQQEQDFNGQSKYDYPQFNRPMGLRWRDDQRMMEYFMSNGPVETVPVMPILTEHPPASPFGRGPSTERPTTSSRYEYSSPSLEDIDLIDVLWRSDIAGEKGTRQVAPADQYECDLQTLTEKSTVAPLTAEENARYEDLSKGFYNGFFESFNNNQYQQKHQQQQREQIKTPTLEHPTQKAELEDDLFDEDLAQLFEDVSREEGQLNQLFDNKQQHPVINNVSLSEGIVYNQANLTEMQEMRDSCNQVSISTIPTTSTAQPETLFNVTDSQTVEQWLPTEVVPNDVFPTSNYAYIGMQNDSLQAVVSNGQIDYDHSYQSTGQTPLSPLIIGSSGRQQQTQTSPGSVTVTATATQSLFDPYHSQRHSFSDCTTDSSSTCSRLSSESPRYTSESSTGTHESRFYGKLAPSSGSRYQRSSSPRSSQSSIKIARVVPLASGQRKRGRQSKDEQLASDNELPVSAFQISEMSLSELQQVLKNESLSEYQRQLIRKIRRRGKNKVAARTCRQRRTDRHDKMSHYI

[1] = viability of uninfected HEp-2 cells – cell-based, HTS, cytotoxicity control for RSV inhibitor project, dose response (AID 2410); assay type: functional; details: human respiratory syncytial virus
HT-1080 = experiment: HT1080 cell viability loss – fluorescence readout (AID 620); assay type: functional, cell-based; details: Homo sapiens
[2] = molecular target: Luciferin 4-monooxygenase (Photinus pyralis, UniProt P08659); experiment: Counter Screen for Luciferase-based Assay Positives. [Related pubchem assays: 620, 618, 411 ]
Troponin, cardiac muscle = Troponin, cardiac muscle (Homo sapiens, UniProt P19429+P45379+P63316); experiment: Fluorescence-based biochemical high throughput dose response assay for activators of the calcium sensitivity of cardiac Regulated Thin Filaments (RTF). [Related pubchem assays (depositor defined):AID493008, AID493018, AID504382, AID504383]; assay type: protein-complex assay
[3] = molecular target: T2, Neuropeptide Y receptor type 2 (Homo sapiens, UniProt P49146); experiment: IC50 for human NPY-Y2 blockade – cell-based, counter-screen for NPY-Y1 antagonist project, dose response (AID 1278); assay type: functional
T2 sequence (P49146 whole entry): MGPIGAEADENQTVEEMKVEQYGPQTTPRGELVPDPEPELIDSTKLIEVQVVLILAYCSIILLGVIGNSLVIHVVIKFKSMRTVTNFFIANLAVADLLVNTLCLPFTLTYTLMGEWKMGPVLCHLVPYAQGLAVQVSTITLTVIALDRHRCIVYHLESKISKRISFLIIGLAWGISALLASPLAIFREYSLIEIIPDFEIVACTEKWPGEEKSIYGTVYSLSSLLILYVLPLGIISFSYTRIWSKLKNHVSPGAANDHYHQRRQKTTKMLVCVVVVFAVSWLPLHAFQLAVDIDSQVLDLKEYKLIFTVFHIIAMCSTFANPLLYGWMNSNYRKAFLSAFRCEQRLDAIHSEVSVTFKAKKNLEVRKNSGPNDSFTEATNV

[4] = molecular target: T3, Neuropeptide Y receptor type 1 (Homo sapiens, UniProt P25929); experiment: IC50 of human NPY-Y1 blockers – cell-based, dose response (AID 1277); assay type: functional
T3 sequence (P25929 whole entry): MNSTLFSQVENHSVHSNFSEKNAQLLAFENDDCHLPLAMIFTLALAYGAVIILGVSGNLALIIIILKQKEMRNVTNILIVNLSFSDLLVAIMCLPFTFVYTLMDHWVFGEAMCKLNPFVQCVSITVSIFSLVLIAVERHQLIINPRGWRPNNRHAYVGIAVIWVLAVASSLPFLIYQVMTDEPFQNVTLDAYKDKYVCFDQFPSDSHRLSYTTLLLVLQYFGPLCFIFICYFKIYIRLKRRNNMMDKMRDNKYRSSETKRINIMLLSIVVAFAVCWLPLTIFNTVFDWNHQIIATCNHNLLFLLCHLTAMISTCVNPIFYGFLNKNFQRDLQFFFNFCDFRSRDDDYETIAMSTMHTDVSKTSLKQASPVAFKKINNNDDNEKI

Streptokinase A = molecular target: T4, Streptokinase A (Streptococcus pyogenes serotype M1, UniProt P10520); experiment: viability-normalized secreted streptokinase activity reduction – plasminogen activation absorbance, OD405, dose response (AID 1914); assay type: functional, Streptococcus pyogenes M1 GAS;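 note: secreted streptokinase activity via plasminogen activation per viability signal from cell pellet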
T4 sequence (P10520 whole entry): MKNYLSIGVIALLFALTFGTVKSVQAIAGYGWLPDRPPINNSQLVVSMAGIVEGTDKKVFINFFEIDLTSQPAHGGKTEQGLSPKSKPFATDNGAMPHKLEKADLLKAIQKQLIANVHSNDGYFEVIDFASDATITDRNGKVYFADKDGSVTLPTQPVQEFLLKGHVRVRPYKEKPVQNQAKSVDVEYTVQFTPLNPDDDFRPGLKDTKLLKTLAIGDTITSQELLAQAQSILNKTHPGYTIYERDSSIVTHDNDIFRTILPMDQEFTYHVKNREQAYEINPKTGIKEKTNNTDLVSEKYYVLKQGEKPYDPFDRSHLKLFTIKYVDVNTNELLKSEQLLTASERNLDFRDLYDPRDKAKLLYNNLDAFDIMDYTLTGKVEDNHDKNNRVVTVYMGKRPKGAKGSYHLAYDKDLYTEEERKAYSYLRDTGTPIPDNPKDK

Streptococcus = experiment: GAS UMAA2166 growth inhibition – luminescence, BacTiterGlo, counter-screen for streptokinase expression inhibitor project, dose response (AID 1915); assay type: functional, organism-based;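 note: potency for reduction of bacterial viability or growth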
[5] = Luminescence Cell-Based Dose Retest to Confirm Inhibitors of Cancer Stem Cells. [Related pubchem assays (depositor defined):AID2717, AID2721]; assay type: functional; details: Homo sapiens
[6] = tested on: Streptococcus sp. 'group A'; experiment: Streptococcus pyogenes SK(-)GAS viability under kanamycin – luminescence, BacTiterGlo, confirmation, counter-screen for streptokinase expression inhibitor project, dose response (AID 1900); assay type: functional, organism-based
[7] = M. tuberculosis H37Rv growth inhibitors, H37Rv strain (AID 1626); assay type: functional
Cytochrome P450 1A2 = molecular target: T5, Cytochrome P450 1A2 (Homo sapiens, UniProt P05177);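 note: PubChem cytochrome P450 panel assay, CYP1A2 panel member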
T5 sequence (P05177 whole entry): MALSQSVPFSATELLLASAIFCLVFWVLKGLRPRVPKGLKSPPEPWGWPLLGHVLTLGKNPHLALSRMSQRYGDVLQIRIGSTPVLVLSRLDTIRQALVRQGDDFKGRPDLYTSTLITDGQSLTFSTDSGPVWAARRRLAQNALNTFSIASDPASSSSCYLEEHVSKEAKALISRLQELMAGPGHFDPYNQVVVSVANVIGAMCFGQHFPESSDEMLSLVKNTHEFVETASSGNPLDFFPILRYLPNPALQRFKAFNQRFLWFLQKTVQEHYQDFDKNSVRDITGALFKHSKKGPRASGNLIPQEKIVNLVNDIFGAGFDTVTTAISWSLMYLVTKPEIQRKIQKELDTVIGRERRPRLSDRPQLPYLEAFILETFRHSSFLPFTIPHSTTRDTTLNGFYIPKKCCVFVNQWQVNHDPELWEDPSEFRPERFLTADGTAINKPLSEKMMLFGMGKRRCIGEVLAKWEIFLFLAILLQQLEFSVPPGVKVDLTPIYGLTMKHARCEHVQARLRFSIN

[8] = NIH-3T3 fibroblast cytotoxicity, dose response, cytotoxicity control, cell-based, fluorescence, Alamar Blue, secondary assay (AID 2327); assay type: functional;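 note: NIH-3T3 mouse fibroblasts cultured with fluconazole at 8 µg/mL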
[9] = molecular target: T6, Mannose-6-phosphate isomerase (Homo sapiens, UniProt P34949); experiment: MPI enzyme activity inhibition – biochemical, fluorescence intensity, coupled assay, primary screen (AID 1209)
T6 sequence (P34949 whole entry): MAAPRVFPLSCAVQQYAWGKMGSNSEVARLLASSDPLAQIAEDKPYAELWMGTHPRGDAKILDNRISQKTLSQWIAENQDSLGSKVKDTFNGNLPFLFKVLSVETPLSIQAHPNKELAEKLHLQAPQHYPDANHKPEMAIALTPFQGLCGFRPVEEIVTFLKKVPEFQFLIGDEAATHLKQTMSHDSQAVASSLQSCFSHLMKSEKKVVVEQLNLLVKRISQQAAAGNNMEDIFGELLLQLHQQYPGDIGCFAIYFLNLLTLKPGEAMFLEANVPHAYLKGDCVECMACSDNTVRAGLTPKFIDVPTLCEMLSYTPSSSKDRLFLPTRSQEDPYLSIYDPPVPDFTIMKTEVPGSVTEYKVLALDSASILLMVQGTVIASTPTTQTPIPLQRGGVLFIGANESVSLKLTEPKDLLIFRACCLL

[10] = fluconazole-exposed Candida albicans growth modulators – fluorescence, retest, confirmation (AID 2467); assay type: functional, cell-based
Cytochrome P450 2C19 = Cytochrome P450 2C19 (Homo sapiens, UniProt P33261); experiment: Cytochrome panel assay with activity outcomes. Panel member name: p450-cyp2c19 Compounds with AC50 equal or less than 10 uM are considered active; assay type: functional; details: read-out: AC50
Leucine aminopeptidase = molecular target: T7, Leucine aminopeptidase (Plasmodium falciparum 3D7, UniProt Q8IL11); experiment: P. falciparum M17LAP inhibitors, primary screen, biochemical, fluorogenic H-Leu-NHMec substrate, 1536-well (AID 1619); assay type: functional
T7 sequence (Q8IL11 whole entry): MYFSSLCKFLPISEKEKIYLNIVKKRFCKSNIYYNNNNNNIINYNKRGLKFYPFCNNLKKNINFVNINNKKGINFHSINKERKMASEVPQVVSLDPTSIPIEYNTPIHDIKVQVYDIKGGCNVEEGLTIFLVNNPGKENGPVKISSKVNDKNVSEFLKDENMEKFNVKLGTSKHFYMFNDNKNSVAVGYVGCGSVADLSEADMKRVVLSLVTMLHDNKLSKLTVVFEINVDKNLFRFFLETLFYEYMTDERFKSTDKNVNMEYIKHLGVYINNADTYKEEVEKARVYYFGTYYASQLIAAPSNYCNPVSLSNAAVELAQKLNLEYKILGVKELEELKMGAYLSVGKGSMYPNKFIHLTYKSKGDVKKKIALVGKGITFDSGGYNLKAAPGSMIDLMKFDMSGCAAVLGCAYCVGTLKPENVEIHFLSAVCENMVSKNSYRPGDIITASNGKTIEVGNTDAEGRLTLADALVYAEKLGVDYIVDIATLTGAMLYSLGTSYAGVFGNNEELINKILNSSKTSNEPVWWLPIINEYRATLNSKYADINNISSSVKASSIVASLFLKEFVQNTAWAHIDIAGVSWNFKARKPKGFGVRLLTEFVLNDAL

[11] = molecular target: T6, Mannose-6-phosphate isomerase; experiment: MPI inhibition at elevated mannose 6-phosphate – biochemical, fluorescence intensity, high mannose 6-phosphate, primary screen (AID 1220)
[12] = blockade of melanocortin 4 receptor signaling – cell-based, plate reader, cherry pick, counter-screen for LGR2 antagonist project, dose response (AID 743444); assay type: functional;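 note: transfected HEK 293 cells stimulated with alpha-MSH peptide; potency of inhibitors of the alpha-MSH evoked signal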
[13] = toxicity toward HepG2 liver cells – cell-based, plate reader, cherry-pick, antagonist series, cytotoxicity control, dose response (AID 743416); assay type: functional
[14] = A549 cell cytotoxicity, dose response, cytotoxicity control, plate reader, cherry-pick, antagonist series (AID 743412); assay type: functional, cell-based
[15] = HPDE-C7 pancreatic duct cell viability loss – fluorescence, HTS (AID 430); assay type: functional, cell-based; details: Homo sapiens
[16] = blockers of bursicon-stimulated LGR2 cAMP reporter – cell-based, HEK293, CRE-luciferase reporter, cherry pick, set 2, dose response (AID 743343); assay type: functional;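 note: transfected cells were stimulated with diluted bursicon conditioned medium after compound addition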
[17] = viability loss of HPDE-C7K cells – cell-based, fluorescence, HTS, primary screen (AID 431); assay type: functional; details: Homo sapiens
[18] = viability loss in HEK293 cells – cell-based, plate reader, cherry-picked samples, cytotoxicity control, dose response (AID 743446); assay type: functional

Cytochrome P450 2C19, sequence (P33261 whole entry): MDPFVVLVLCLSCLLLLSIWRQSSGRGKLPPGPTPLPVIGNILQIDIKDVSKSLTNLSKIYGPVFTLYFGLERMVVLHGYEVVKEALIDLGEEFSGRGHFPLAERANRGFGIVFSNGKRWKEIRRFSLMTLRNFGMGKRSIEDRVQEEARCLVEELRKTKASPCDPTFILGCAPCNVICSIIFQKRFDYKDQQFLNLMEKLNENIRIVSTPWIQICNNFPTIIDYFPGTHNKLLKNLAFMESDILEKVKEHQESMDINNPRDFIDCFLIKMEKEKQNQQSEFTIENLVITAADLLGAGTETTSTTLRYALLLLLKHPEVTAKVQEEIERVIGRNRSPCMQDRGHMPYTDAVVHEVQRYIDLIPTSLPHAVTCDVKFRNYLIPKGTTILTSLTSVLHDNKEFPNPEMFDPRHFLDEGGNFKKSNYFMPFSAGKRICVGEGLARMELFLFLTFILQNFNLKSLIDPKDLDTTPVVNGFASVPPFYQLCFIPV
Luciferin 4-monooxygenase, sequence (P08659 whole entry): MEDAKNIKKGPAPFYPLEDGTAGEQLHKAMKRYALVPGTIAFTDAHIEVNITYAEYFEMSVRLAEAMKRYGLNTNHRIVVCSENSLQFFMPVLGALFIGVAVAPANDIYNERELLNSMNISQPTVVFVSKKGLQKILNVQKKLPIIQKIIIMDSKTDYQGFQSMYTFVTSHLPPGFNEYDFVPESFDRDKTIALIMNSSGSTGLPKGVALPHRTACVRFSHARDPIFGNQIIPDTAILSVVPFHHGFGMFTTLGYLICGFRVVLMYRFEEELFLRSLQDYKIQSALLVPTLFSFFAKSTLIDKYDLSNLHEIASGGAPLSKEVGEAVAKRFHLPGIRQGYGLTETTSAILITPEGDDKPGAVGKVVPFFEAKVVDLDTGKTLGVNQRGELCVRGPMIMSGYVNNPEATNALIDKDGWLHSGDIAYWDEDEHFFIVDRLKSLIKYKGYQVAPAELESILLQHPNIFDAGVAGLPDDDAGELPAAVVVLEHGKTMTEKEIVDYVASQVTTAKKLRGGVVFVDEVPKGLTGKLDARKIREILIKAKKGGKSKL

## Fc1ccc(-c2nnc(-c3ccc(Cl)cc3Cl)o2)cc1
Protein skinhead-1
  IC50: > 100 µM (inactive)
[1]
  CC50: 37 µM (active)
HT-1080
  EC50: > 50 µM (not active)
[2]
  EC50: 2.56 µM (active)
Troponin, cardiac muscle
  EC50: > 71.5 µM (inactive)

## Cc1cc2cc(C)c(NCCNC(=O)c3cccc(F)c3)nc2cc1C
[3]
  IC50: 4.44 µM (active)
[4]
  IC50: 3.39 µM (active)

## COc1ccc(N2CCN(C(c3cccc(OC)c3OC)c3nnnn3C3CCCC3)CC2)cc1 (stereo unspecified)
[3]
  IC50: > 35 µM (not active)
[4]
  IC50: > 35 µM (not active)

## c1ccc(-c2cc3c(NCC4COc5ccccc5O4)ncnc3s2)cc1 (stereo unspecified)
Streptokinase A
  EC50: 3.29 µM (active)
Streptococcus
  EC50: 21.7 µM (active)
[5]
  AC50: 3.96 µM (active)
[6]
  EC50: 3 µM (active)
[7]
  IC50: > 100 µM (active)

## COc1ccc([N+](=O)[O-])cc1N(CC(O)CN(CC(C)C)CC(C)C)S(=O)(=O)c1ccccc1 (stereo unspecified)
[3]
  IC50: > 35 µM (not active)
[4]
  IC50: > 35 µM (not active)
Cytochrome P450 1A2
  AC50: 11.2 µM (inconclusive)

## N=C1/C(=C\c2ccc(SCc3ccccc3)o2)C(=O)N=C2SC=NN12
[8]
  EC50: > 150 µM (inactive)
[9]
  IC50: > 50 µM (not active)
[10]
  EC50: 5.72 µM (active)

## COC(=O)c1ccc(NC(=O)C2CCCCC2C(=O)O)cc1 (stereo unspecified)
Cytochrome P450 2C19
  AC50: 0.0398 µM (inconclusive)
Leucine aminopeptidase
  IC50: 13.5 µM (active)

## COc1ccc2c(c1)C(C)=CC(C)(C)N2C(=O)Nc1ccccc1
[11]
  IC50: > 50 µM (not active)
[9]
  IC50: > 50 µM (not active)

## O=S(=O)(CCSc1nc2ccccc2o1)c1nc2ccccc2s1
[12]
  AC50: 1.8 µM (active)
[13]
  AC50: 5.74 µM (active)
[14]
  AC50: 44.4 µM (active)
[15]
  EC50: 4.88 µM (active)
[16]
  AC50: 2.43 µM (active)
[17]
  EC50: 5.33 µM (active)
[18]
  AC50: 6.8 µM (active)
